The record followed here is patent US10391148B2, “Method of prevention and inhibition of preterm labor” (Wayne State University, priority 2016, dated 2019).

The subject of assay [1] is PIBF1 expression by human peripheral blood B cells. Briefly: PIBF1 expression by purified human peripheral blood IgD+ B cells after stimulation (qRT-PCR, Western Blot). The conditions noted are these: 2 days (3 days in FIG. 4A), 100 ng/ml cytokine, 1 ng/ml TGF-β, 1 μM progesterone, vs medium control. The format is cell-based. As for the experimental part: Placentas and the attached chorioamniotic membranes were obtained after delivery. In each case, several random strips of the chorioamniotic membranes located at different regions of the choriodecidua were embedded in rolls in optimal cutting temperature (OCT) compound (Sakura Finetek 4583), frozen in liquid nitrogen and stored at −80° C. for immunofluorescence analysis. Choriodecidual tissues were scraped from the chorionic membranes that had blood clots removed, and digested with 0.2% (w/v) Clostridium histolyticum Collagenase V (Sigma-Aldrich C9263) in RPMI-1640 with 10% fetal bovine serum (Thermo Fisher Scientific 26140-079) at 37° C. with gentle agitation for 45 minutes. Cells released from the tissues were cleaned by being passed through a 100 μm cell strainer and centrifuged on a Ficoll gradient. Peripheral blood leukocytes of anonymous healthy donors after leukophoresis were obtained from the Southeast Michigan branch of American Red Cross. Peripheral blood mononuclear cells (PBMCs) were isolated using Histopaque-1077 (Sigma-Aldrich 10771) following the manufacturer's instruction. Red blood cells were lysed using an ammonium-chloride-potassium (ACK) lysing buffer (Thermo Fisher Scientific A1049201). IgD+B cells were purified from PBMCs by magnetic-activated cell sorting (MACS) with a biotinylated goat F(ab′)2 anti-human IgD antibody and anti-biotin magnetic microbeads (Miltenyi Biotec) as described in Chen, K., et al., Nat Immunol 10, 889-898 (2009). The purity of the IgD+B cells ranged from 92% to 99% as determined by flow cytometry with CDI9 staining. CD19+ B cells were similarly separated from PBMCs using a biotinylated mouse anti-human CD19 (clone HIB19) antibody, with purity ranging from 93% to 97% as determined by flow cytometry using a different clone (SJ25C1) of CD19 antibody.
Human PMBCs, IgD+B cells, CD19+ B cells or PBMCs depleted of CD19+ B cells were cultured in RPMI-1640 medium (Sigma-Aldrich R8578) supplemented with 2 mM L-glutamine, 2 mg/ml NaHCO3, 100 U/ml penicillin, 100 µg/ml streptomycin, […] amphotericin B and 10% FBS. Cells were stimulated with 100 ng/ml IL-33 (R&D 3625-IL-010 or Peprotech 200-33), 1 μM progesterone (Sigma-Aldrich P0130), IL-4 (Peprotech 200-04), IL-10 (Peprotech 200-10), IL-17A (Peprotech 200-17), IL-25 (R&D 1258-IL-025), IFN-γ (Peprotech 300-02), TGF-β (R&D 240-B-010/CF), TNF (210-TA-020) or TSLP (Peprotech 300-62). RNA or protein expression was analyzed after 2 days.
RNA was extracted from cells or tissues using TRIzol (Thermo Fisher Scientific 15596026). cDNA synthesis was performed using the Superscript III first strand synthesis system (Thermo Fisher Scientific 188080051) in a thermocycler (Bio-Rad T100). qRT-PCR was performed with Power SYBR Green PCR Master Mix (Thermo Fisher Scientific 4367660) in a StepOnePlus instrument (Applied Biosystems) using pairs of sense and anti-sense primers targeted at the genes of interest (Tables 2, 3).
Cells were pelleted and washed twice with cold PBS and lysed in a pH 8.0 protein extraction buffer containing 20 mM Tris-HCl, 150 mM NaCl, 1% IGEPAL CA-630 (Sigma-Aldrich 18896), 0.1% sodium dodecyl sulfate (SDS), 1 mM EDTA and protease and phosphatase inhibitor cocktail on ice for 30 minutes. For protein extraction from mouse uterus and human chorioamniotic membranes, the tissue was washed twice with PBS to remove blood and homogenized in the above protein extraction buffer with a tissue tearor (Biospec Products 985370), followed by 3 rounds of sonication at 30% maximum power for 5 seconds per round using a sonifier (Thermo Fisher Scientific Q500). Supernatants were collected after centrifugation, heated at 98° C. in an SDS buffer with 4% β-mecaptoethanol for 5 minutes to denature proteins. Proteins were resolved in 4-20% Bis-Tris gels (GenScript M42012) and transferred to 0.45 μm nitrocellulose membranes (Bio-Rad 1620115). […]
On the technique in general: Quantitative PCR measures a nucleic acid by following its amplification.

In assay [2] the test system is pregnant female μMT mice (LPS-induced PTL). Briefly: LPS-induced preterm labor in pregnant μMT mice: preterm delivery and neonatal/fetal mortality. It counts as in vivo, mouse. The note with it: read on gd 17.5, fPIBF1 1 μg (800 ng in method), cPIBF1 300 ng, vs PBS; for rate of preterm delivery (PTL): protein intravenous on gd 16.5 three hours before 5 μg intraperitoneal LPS. The method, then: Six to ten-week old virgin female C57BL/6 (WT) or μMT mice were mated with male Balb/c mice. Female mice were examined daily in the early morning for the presence of a vaginal plug, which denoted gestational day (gd) 0.5. In the late morning of gd 16.5, pregnant female mice were intraperitoneally administered with 200 μl sterile PBS or 200 μl sterile PBS containing 0.5, 2.5, 5, 10 or 20 μg lipopolysaccharides (LPS) from Salmonella enterica serotype typhimurium (Sigma-Aldrich L6143). The various doses of LPS were given to the mice randomly. In some experiments, splenic B cells of 5 to 8-week old virgin female WT or IL-10−/− mice were purified using a mouse resting B cell negative isolation kit (Miltenyi Biotec 130-090-862) to 94% to 99% purity as determined by CD19 staining. 107 purified B cells were adoptively transferred in 200 μl sterile PBS into pregnant female μMT mice on gd 14.5 prior to LPS administration on gd 16.5. In some other experiments, 200 μl sterile PBS or 200 μl sterile PBS containing 800 ng recombinant full-length PIBF1 (fPIBF1) (aa 1-757 (SEQ ID NO:11, with an N-terminal glutathione-S-transferase (GST) tag of 232 amino acids, Abnova H00010464-P01) or 300 ng of a recombinant C-terminal fragment of PIBF1 (cPIBF1) (aa 660-755 (SEQ ID NO:12), with an N-terminal glutathione-S-transferase (GST) tag of 232 amino acids, Abnova H00010464-Q01) was intravenously administered to pregnant female μMT mice on gd 16.5 three hours prior to intraperitoneal LPS administration. 24 hours after LPS administration, female mice were examined for delivery and death of delivered pups if delivery occurred. They were then sacrificed for the examination of neonatal/fetal mortality, which was calculated as the total number of dead delivered pups and dead fetuses divided by the total number of implantation sites. Uteri were collected, briefly washed in PBS and processed for RNA and protein extraction or flow cytometry. The people performing the analysis were not blinded to the genotype or treatment of the mice.
The sample size was calculated based on the effect size derived from preliminary data at 5% significance level and 80% power using the software G*Power 3.1. Sample availability exceeded the estimated sample size. Results are expressed as mean±S.E.M. Percentage data were subjected to square root transformation prior to statistical analysis to verify test assumptions of equal variance. Statistical difference in the rate of PTL between different strains of mice or different treatment groups was assessed by Fisher's exact test. Statistical difference in neonatal/fetal mortality was assessed by Mann-Whitney U test. For flow cytometry and qRT-PCR data, Shapiro-Wilk test was used to determine the normality of the data. Statistical significance was assessed by Student's t-test for normally distributed data and Mann-Whitney U test for non-normally distributed data. p values <0.05 were considered statistically significant.

Entries after “also recorded” stand apart in the source; their conditions may differ.

Take “TGF-β: cytokine, R&D 240-B-010/CF [reference compound]”: in assay [1], the “PIBF1 expression by human peripheral blood B cells (PIBF1 transcript fold change, Western Blot)” value was “had no effect; also recorded: do not induce”. Still for that read-out and setting: to “TSLP: T helper type 2 cytokine, Peprotech 300-62 [reference compound]” belongs “only IL-33 induced PIBF1 expression; also recorded: do not induce”.

With “cPIBF1: recombinant C-terminal fragment of PIBF1, aa 660-755, SEQ ID NO:12, N-terminal GST tag, Abnova H00010464-Q01”, the neonatal/fetal mortality result in assay [2] (protein intravenous on gd 16.5 before 5 μg intraperitoneal LPS) was “neither mitigated”. Besides, the “rate of preterm delivery (PTL)” value is “neither mitigated” in assay [2] and “does not protect” in assay [2] (listed as C-terminal fragment of PIBF1). On to `CC(=O)[C@H]1CC[C@H]2[C@@H]3CCC4=CC(=O)CC[C@]4(C)[C@H]3CC[C@]12C` [progesterone, reference compound], for which the “PIBF1 expression by human peripheral blood B cells (PIBF1 transcript fold change, Western Blot)” value in assay [1] is recorded as “known inducer of PIBF1”.

B1: IL-4: T helper type 2 cytokine, Peprotech 200-04 (protein, UniProt P05112 25-153, looked up)
Interleukin-4: HKCDITLQEIIKTLNSLTEQKTLCTELTVTDIFAASKNTTEKETFCRAATVLRQFYSHHEKDTRCLGATAQQFHRHKQLIRFLKRLDRNLWGLAGLNSCPVKEANQSTLENFLERLKTIMREKYSKCSS
Consider B1, for which the “PIBF1 expression by human peripheral blood B cells (PIBF1 transcript fold change, Western Blot)” value in assay [1] was “only IL-33 induced PIBF1 expression; also recorded: do not induce”.

B2: IL-25: T helper type 2 cytokine, R&D 1258-IL-025 (protein, UniProt Q9H293 33-177, looked up)
Interleukin-25: YSHWPSCCPSKGQDTSEELLRWSTVPVPPLEPARPNRHPESCRASEDGPLNSRAISPWRYELDRDLNRLPQDLYHARCLCPHCVSLQTGSHMDPRGNSELLYHNQTVFYRRPCHGEKGTHKGYCLERRLYRVSLACVCVRPRVMG
Consider B2, for which the “PIBF1 expression by human peripheral blood B cells (PIBF1 transcript fold change, Western Blot)” value in assay [1] is given as “only IL-33 induced PIBF1 expression; also recorded: do not induce”.

B3: IL-33: interleukin 33 cytokine (R&D 3625-IL-010 or Peprotech 200-33); human IL-33 is SEQ ID NO: 5 (protein, listed as Homo sapiens)
chain: MKPKMKYSTNKISTAKWKNTASKALCFKLGKSQQKAKEVCPMYFMKLRSGLMIKKEACYFRRETTKRPSLKTGRKHKRHLVLAACQQQSTVECFAFGISGVQKYTRALHDSSITGISPITEYLASLSTYNDQSITFALEDESYEIYVEDLKKDEKKDKVLLSYYESQHPSNESGDGVDGKMLMVTLSPTKDFWLHANNKEHSVELHKCEKPLPDQAFFVLHNMHSNCVSFECKTDPGVFIGVKDNHLALIKVDSSENLCTENILFKLSET
As to B3, the “PIBF1 expression by human peripheral blood B cells (PIBF1 transcript fold change, Western Blot)” value in assay [1] was “promoted PIBF1 expression”.

B4: IFN-γ: cytokine, Peprotech 300-02 (protein, UniProt P01579 24-161, looked up)
Interferon gamma: QDPYVKEAENLKKYFNAGHSDVADNGTLFLGILKNWKEESDRKIMQSQIVSFYFKLFKNFKDDQSIQKSVETIKEDMNVKFFNSNKKKRDDFEKLTNYSVTDLNVQRKAIHELIQVMAELSPAAKTGKRKRSQMLFRG
Regarding B4, the “PIBF1 expression by human peripheral blood B cells (PIBF1 transcript fold change, Western Blot)” value in assay [1] is “had no effect; also recorded: do not induce”.

B5: IL-10: cytokine, Peprotech 200-10 (protein, UniProt P22301 19-178, looked up)
Interleukin-10: SPGQGTQSENSCTHFPGNLPNMLRDLRDAFSRVKTFFQMKDQLDNLLLKESLLEDFKGYLGCQALSEMIQFYLEEVMPQAENQDPDIKAHVNSLGENLKTLRLRLRRCHRFLPCENKSKAVEQVKNAFNKLQEKGIYKAMSEFDIFINYIEAYMTMKIRN
As for B5, the “PIBF1 expression by human peripheral blood B cells (PIBF1 transcript fold change, Western Blot)” value in assay [1] is on record as “had no effect; also recorded: do not induce”.
